Source: patent US7799748B2, “Method of selecting benefit agents/oils suitable for reducing surfactant damage” (Conopco, Inc., priority 2005, dated 2010)

Experiments:
[1] = biological target: BSA protein (Bos taurus, UniProt P02769); assay: Micro-DSC for protein denaturation; parameters: species or system Bovine; settings: denaturation enthalpy approaching zero, FIG. 5
Procedure: 1.2% of BSA acetate buffer solution was prepared (pH 5.2, IS 0.02). […] Then the BSA acetate solution was titrated with either oil, or surfactant, or oil/surfactant at 1:1 ratio. After each titration, a DSC measurement was performed.

[2] = biological target: BSA (Bovine Serum Albumin) (Bos taurus, UniProt P02769); assay: Conductivity test: surfactant binding to BSA protein; settings: 10% SDS with 10% oil (1:1) or 10% SDS alone; 0.5% BSA in 0.02M acetate buffer pH~5.2, room temperature
Procedure: Conductance measurements were carried out at room temperature by use of a Thermo conductivity meter, model Orion 150+. Routinely, the titrations were performed by adding a controlled amount of 10% of stock surfactant solution under magnetic stirring into the 0.5% BSA (Bovine Serum Albumin) in 0.02M acetate buffer at pH˜5.2. Values of CMC (critical micellization concentration), CAC (critical aggregation concentration) and protein saturation point (PSP) were defined by the changing of the slope of the conductivity vs. surfactant concentration plots. The number of surfactants binding to each protein can be calculated by: {[PSP]−[CAC]}/{[protein]/Mwprotein}, where [protein] is the protein concentration.
In order to show the effect of benefit agent having different polarity on binding to protein molecule (a reflection of the harshness of surfactant; more surfactant binding to protein equal harsher and more damage expected), applicants tested surfactant binding of (1) surfactant alone and (2) of surfactant in combination with various oils/cosolvents (at 1:1 surfactant to oil ratio) to see level of (how many) surfactants binding per protein molecule (e.g., BSA) at saturation. The tests were done using conductivity test described in protocol and results are set forth below in Table 1.
Applicants conducted same test as in Examples 1 to 10, but used SLES/CAPB surfactant system instead of SDS.

Chain of BSA (Bovine Serum Albumin) (P02769 25-607): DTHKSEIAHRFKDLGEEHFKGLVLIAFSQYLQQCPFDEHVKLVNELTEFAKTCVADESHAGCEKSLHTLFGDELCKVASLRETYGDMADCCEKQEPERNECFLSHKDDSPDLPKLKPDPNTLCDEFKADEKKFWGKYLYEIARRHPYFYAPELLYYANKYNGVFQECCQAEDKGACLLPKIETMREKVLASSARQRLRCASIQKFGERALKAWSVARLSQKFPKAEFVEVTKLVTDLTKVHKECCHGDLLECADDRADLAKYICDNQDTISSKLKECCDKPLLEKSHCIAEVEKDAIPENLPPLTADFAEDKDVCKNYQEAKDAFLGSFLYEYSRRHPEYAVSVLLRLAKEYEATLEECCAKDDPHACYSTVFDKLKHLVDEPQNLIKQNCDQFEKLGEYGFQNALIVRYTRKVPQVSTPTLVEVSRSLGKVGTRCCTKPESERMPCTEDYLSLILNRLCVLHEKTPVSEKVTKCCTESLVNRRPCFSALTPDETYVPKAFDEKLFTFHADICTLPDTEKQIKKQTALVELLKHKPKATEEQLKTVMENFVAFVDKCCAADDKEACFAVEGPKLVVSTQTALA
Chain of BSA protein (P02769 25-607): as above

CCCCCCCCCCCCOS(=O)(=O)[O-].[Na+] [10% SDS (surfactant alone), Sodium dodecyl sulfate]
ratio surfactant to protein at which BSA protein is fully denatured at room temperature [1]: about 1.2
Saturated binding: No. of surfactant per BSA at saturation [2]: 220
